Assay [1] deals with T1, Vasopressin V2 receptor (Rattus norvegicus, UniProt Q00788). In words: Binding affinity was evaluated by measuring the displacement of [3H]-AVP (arginine vasopressin) from specific binding sites in kidney medulla obtained from rats. It is filed as tissue-based. On the technique in general: Displacement assays read how much labelled ligand stays bound in the presence of the test substance.

For assay [2], the target named is T2, Oxytocin receptor (Rattus norvegicus, UniProt P70536).
T2 sequence (P70536 whole entry): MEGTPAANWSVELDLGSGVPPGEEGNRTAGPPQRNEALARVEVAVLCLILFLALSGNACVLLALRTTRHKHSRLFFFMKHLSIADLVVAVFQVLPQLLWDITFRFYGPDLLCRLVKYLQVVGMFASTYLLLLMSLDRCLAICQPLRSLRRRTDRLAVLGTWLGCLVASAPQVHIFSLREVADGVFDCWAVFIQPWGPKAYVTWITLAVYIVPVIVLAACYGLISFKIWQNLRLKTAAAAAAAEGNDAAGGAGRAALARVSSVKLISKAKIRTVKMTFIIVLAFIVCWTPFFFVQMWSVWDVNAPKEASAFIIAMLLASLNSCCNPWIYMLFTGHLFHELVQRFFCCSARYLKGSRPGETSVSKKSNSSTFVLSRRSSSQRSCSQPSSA
In words: Binding affinity was evaluated by measuring the displacement of [3H]-OT (oxytocin) from specific binding sites in uterine tissue obtained from rats.

Assay [3] has as its target T3, Vasopressin V1a receptor (Homo sapiens, UniProt P37288). In words: Binding affinity was evaluated by measuring the displacement of [3H]AVP (arginine vasopressin) from specific binding sites in human platelets.
Assay [4] concerns the target T4, Vasopressin V1a receptor (Rattus norvegicus, UniProt P30560). In words: Binding affinity was evaluated by measuring the displacement of [3H]AVP (arginine vasopressin) from specific binding sites in rat liver.
Assay [5] addresses T5, Oxytocin receptor (Homo sapiens, UniProt P30559).
T5 sequence (P30559 whole entry): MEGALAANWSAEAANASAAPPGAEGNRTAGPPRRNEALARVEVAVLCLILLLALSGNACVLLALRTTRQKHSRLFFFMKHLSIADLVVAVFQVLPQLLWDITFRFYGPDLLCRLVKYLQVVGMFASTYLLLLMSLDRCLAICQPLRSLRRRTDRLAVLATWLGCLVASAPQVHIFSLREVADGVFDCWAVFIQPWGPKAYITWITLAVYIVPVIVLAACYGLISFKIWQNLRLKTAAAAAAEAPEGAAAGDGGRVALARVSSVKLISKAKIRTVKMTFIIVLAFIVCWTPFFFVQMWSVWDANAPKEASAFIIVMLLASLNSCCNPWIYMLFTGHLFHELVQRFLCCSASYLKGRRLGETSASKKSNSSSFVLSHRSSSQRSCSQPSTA
The assay can be described thus: Binding affinity was evaluated by measuring the displacement of [3H]OT (oxytocin) from specific binding sites in uterine tissue obtained from human.

Assay [6] concerns the target T5, Oxytocin receptor. The assay can be described thus: Binding affinity was evaluated by measuring the displacement of [3H]-OT (oxytocin) from specific binding sites in uterine tissue obtained from human.
For assay [7], the target named is T4, Vasopressin V1a receptor. In words: Binding affinity was evaluated by measuring the displacement of [3H]AVP (arginine vasopressin) from specific binding sites in rat liver.
For assay [8], the target named is T1, Vasopressin V2 receptor. The assay can be described thus: Binding affinity was evaluated by measuring the displacement of [3H]AVP (arginine vasopressin) from specific binding sites in kidney medulla obtained from rats. The format is tissue-based.
For assay [9], the target named is T3, Vasopressin V1a receptor. The assay can be described thus: Binding affinity was evaluated by measuring the displacement of [3H]AVP (arginine vasopressin) from specific binding sites in human platelets.
The target in assay [10] is T6, Vasopressin V2 receptor (Homo sapiens, UniProt P30518). The assay can be described thus: Binding affinity was evaluated by measuring the displacement of [3H]-AVP (arginine vasopressin) from specific binding sites in kidney medulla obtained from early postmortem human donors. It is filed as tissue-based.
T6 sequence (P30518 whole entry): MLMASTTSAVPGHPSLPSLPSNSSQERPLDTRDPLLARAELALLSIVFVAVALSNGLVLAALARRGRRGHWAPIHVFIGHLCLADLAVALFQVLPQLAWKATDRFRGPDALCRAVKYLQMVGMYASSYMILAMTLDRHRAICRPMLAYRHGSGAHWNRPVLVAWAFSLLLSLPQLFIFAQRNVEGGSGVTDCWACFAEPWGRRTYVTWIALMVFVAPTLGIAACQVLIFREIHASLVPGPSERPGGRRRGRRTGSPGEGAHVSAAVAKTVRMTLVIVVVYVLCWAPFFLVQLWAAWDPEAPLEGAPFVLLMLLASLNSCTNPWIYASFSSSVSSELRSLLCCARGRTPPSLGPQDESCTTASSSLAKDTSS
The target in assay [11] is T6, Vasopressin V2 receptor. The assay can be described thus: Binding affinity was evaluated by measuring the displacement of [3H]AVP (arginine vasopressin) from specific binding sites in kidney medulla obtained from early postmortem human donors. The format is tissue-based.

T1 sequence (Q00788 whole entry): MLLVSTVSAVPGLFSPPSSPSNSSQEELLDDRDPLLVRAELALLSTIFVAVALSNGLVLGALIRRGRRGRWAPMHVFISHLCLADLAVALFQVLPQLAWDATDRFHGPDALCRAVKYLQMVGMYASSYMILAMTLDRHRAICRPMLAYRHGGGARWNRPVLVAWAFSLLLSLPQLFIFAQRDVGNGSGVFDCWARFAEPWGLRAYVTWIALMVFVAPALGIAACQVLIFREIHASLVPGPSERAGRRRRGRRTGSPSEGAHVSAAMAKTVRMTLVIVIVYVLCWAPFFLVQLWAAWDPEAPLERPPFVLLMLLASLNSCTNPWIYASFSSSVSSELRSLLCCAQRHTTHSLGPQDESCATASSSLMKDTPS
T3 sequence (P37288 whole entry): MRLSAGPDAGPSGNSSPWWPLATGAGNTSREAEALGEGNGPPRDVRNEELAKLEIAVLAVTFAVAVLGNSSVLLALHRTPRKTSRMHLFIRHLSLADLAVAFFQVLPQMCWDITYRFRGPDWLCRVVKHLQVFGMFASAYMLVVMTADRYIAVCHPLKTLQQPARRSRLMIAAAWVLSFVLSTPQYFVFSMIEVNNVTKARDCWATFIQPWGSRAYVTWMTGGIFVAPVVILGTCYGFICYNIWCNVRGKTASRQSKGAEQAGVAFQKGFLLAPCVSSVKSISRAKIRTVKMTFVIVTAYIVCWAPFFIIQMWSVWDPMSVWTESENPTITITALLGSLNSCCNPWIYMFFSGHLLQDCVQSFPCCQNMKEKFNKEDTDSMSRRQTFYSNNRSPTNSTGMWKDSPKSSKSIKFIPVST
T4 sequence (P30560 whole entry): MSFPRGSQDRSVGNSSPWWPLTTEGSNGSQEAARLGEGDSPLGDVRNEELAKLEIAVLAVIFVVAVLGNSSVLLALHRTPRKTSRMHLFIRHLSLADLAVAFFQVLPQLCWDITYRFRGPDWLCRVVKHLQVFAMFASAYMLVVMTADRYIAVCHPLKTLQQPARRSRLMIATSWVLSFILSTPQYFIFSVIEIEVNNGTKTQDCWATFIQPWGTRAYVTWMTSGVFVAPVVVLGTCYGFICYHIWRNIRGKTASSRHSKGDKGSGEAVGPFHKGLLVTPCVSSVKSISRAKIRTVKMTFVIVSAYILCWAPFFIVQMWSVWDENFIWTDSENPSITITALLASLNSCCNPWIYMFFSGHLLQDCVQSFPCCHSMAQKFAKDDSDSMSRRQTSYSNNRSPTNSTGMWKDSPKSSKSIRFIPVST

For `CC(=O)N1CCCC(COc2ccc(C(=O)N3CCC(N4C(=O)OCc5ccccc54)CC3)cc2)C1` (stereo not given), the inhibitory constant (Ki) (as a rule, the equilibrium dissociation constant of an inhibitor or competing ligand from its target) was 11000 nM on Vasopressin V2 receptor [1]; 340 nM at Oxytocin receptor [2]; 38000 nM at Vasopressin V1a receptor [3]; 24 nM at Vasopressin V1a receptor [4]; 200 nM on Oxytocin receptor [5].
As to `CC(=O)NCCCOc1ccc(C(=O)N2CCC(N3C(=O)OCc4ccccc43)CC2)cc1`, the Ki at Oxytocin receptor [2] stood at 200 nM; at Oxytocin receptor [6], 130 nM; on Vasopressin V1a receptor [7] it was 31 nM; at Vasopressin V2 receptor [8], 35000 nM; on Vasopressin V1a receptor [9], 36000 nM.
On to `CC(=O)NCCCOc1ccc(C(=O)N2CCC(N3C(=O)NCc4ccccc43)CC2)cc1`, for which the Ki on Oxytocin receptor [2] was 2400 nM; on Oxytocin receptor [6], 2100 nM; at Vasopressin V1a receptor [7], greater than 1000 nM; on Vasopressin V2 receptor [8] it was greater than 3000 nM; on Vasopressin V1a receptor [9], 62000 nM.
`COc1cc(OC2CCN(C(C)=O)CC2)ccc1C(=O)N1CCC(N2C(=O)OCc3ccccc32)CC1`: the Ki on Vasopressin V2 receptor [1] is greater than 30000 nM; on Vasopressin V1a receptor [3], 3200 nM; on Vasopressin V1a receptor [4], 3.7 nM; at Oxytocin receptor [5], 4.6 nM; at Vasopressin V2 receptor [10] it was 37000 nM.
Regarding `CC(=O)NCCCOc1ccc(C(=O)N2CCC(N3C(=O)CCc4ccccc43)CC2)cc1`, the Ki at Vasopressin V2 receptor [11] was greater than 81000 nM; at Oxytocin receptor [2] it was 230 nM; on Oxytocin receptor [6] it was 170 nM; on Vasopressin V1a receptor [7], 32 nM; at Vasopressin V2 receptor [8], greater than 30000 nM; at Vasopressin V1a receptor [9], 52000 nM.
`CC(=O)N1CCCCC1CCOc1ccc(C(=O)N2CCC(N3C(=O)OCc4ccccc43)CC2)cc1` (stereo not given): the Ki at Vasopressin V2 receptor [1] is 11000 nM; at Vasopressin V1a receptor [3], 22000 nM; on Vasopressin V1a receptor [4] it was 15 nM; at Oxytocin receptor [5] it was 150 nM.
Turning to `CC(=O)N1CCC(Oc2ccc(C(=O)N3CCC(N4C(=O)OCc5ccccc54)CC3)cc2)CC1`, the Ki was 35000 nM on Vasopressin V2 receptor [1]; 69 nM on Oxytocin receptor [2]; 12000 nM at Vasopressin V1a receptor [3]; 5.6 nM at Vasopressin V1a receptor [4]; 24 nM on Oxytocin receptor [5].
